Measured values published in US20240207461A1, “RADIOACTIVE ANTITUMOR AGENT” (NIHON MEDI-PHYSICS CO., LTD., priority 2021, published 2024).

What was measured:
CD-1 mice [1] = assay: Urinary renal toxicity marker (urinary NGAL/creatinine ratio by ELISA); format: in vivo; conditions: urine 16 weeks after administration of ^225Ac-labeled antibody (15 kBq/mouse), n=4 to 5
Description: Whether combined administration of a ^225Ac-labeled anti-MUC5AC humanized antibody prepared using ^225Ac-labeled DOTAGA-DBCO and a compound expected to have a renal protective effect (renal protective agent) reduces delayed renal toxicity caused by radiation emitted from ^225Ac or ^225Ac daughter nuclide was evaluated. […]
During the observation period, body weight measurement, blood cell measurement, and renal toxicity marker measurement were performed over time and signs of toxicity were evaluated.
Urine was collected from each individual 16 weeks after the administration of the ^225Ac-labeled anti-MUC5AC humanized antibody, and neutrophil gelatinase-associated lipocalin (NGAL), and creatinine concentration of the urine samples were measured by ELISA. […] The NGAL value corrected for urine concentration was calculated by dividing the obtained NGAL value by the creatinine value (urinary NGAL/creatinine ratio, hereinafter referred to as urinary N/C ratio). The calculated urinary N/C ratio was confirmed using Stat PreClinica (manufactured by Takumi Information Technology Co., Ltd.) for the homoscedasticity of the measured values. […]

CD-1 mice [2] = assay: Autopsy and measurement of kidney weight; format: in vivo, mouse; conditions: at autopsy, 184 days from administration
Description: The ^225Ac-labeled anti-MUC5AC humanized antibody produced in Production Example 3 was administered to CD-1 mice (5 weeks old, male, manufactured by Charles River Japan), each group n=5 at a dose of 15 kBq/mouse and, as a renal protective agent, any of Zn-DTPA, furosemide, spironolactone, and eplerenone was administered in combination at the dosage, administration method, administration frequency, and initial administration timing shown in Table 1. That is, a group to which only ^225Ac-labeled anti-MUC5AC humanized antibody was administered (Comparative Example 1), a group to which ^225Ac-labeled anti-MUC5AC humanized antibody and each renal protective agent administered in combination (Example 1 to Example 7), and a group to which only a renal protective agent is administered without administration of ^225Ac-labeled anti-MUC5AC humanized antibody (Comparative Examples 2 to 5) were established. The dose of the ^225Ac-labeled anti-MUC5AC humanized antibody, each renal protective agent, and feeding conditions are shown in Table 1. The sustained release tablets used for the transdermal administration group of each renal protective agent were those manufactured by Innovative Research of America, and the mixed feed containing 0.004% of each renal protective agent used was manufactured by Oriental Yeast Co., Ltd.
On the final day of the observation period (184 days from the day of administration of the ^225Ac-labeled anti-MUC5AC humanized antibody), euthanasia and autopsy were performed by exsanguination under isoflurane anesthesia. After autopsy, the kidneys were collected and weighed. The obtained organ weight measurement results (excluding Example 7) were confirmed for the homoscedasticity of the measured values. Since homoscedasticity was confirmed for all items, a significant difference test was performed using the Tukey method, which is a parametric test. The significance level was set to 5%.

O=C([O-])CN(CCN(CC(=O)[O-])CC(=O)[O-])CCN(CC(=O)[O-])CC(=O)[O-].[Na+].[Na+].[Na+].[Zn+2] [Comparative Example 2, Zn-DTPA]
N/C ratio (urinary NGAL/creatinine ratio) (CD-1 mice [1]): 1.1 ± 0.60
body weight (CD-1 mice [2]): 44.48 ± 4.5 g
kidney weight (CD-1 mice [2]): 0.75 ± 0.12 g
kidney weight/body weight ratio (CD-1 mice [2]): 0.017 ± 0.001
